This note sets out measurements from BindingDB's records for doi:10.1021/jm00001a012 (Ciba-Geigy, 1995).

SMILES strings stand for the structures.

The test concerns the target 5-lipoxygenase (Cavia porcellus). The experiment in a line: In vitro 5-lipoxygenase inhibitory activity against A-23187-stimulated conversion of [14C]AA to LTB4 in guinea pig peritoneal polymorphonuclear leukocytes.

Broadly, the IC50 is the concentration that inhibits the measured activity by half. Read a low IC50 as greater potency. With `NC(=O)N(O)C[C@H]1COc2ccc(Oc3ccc(F)cc3)cc2O1` [(2S)-2-[[N-(aminocarbonyl)-N-hydroxyamino]methyl]-7-(4-fluorophenoxy)-1,4-benzodioxan], the IC50 is 97 nM.
